Data reported in ChEMBL document CHEMBL1151707, “Novel 3-phenylpropane-1,2-diamine derivates as inhibitors of aminopeptidase N (APN)” (Bioorg Med Chem, 2008).

Key:
Aminopeptidase N = target: T1, Aminopeptidase N (Sus scrofa, UniProt P15145); assay: Inhibition of pig kidney microsome aminopeptidase N by UV-visible spectrophotometer
T1 sequence (P15145 whole entry): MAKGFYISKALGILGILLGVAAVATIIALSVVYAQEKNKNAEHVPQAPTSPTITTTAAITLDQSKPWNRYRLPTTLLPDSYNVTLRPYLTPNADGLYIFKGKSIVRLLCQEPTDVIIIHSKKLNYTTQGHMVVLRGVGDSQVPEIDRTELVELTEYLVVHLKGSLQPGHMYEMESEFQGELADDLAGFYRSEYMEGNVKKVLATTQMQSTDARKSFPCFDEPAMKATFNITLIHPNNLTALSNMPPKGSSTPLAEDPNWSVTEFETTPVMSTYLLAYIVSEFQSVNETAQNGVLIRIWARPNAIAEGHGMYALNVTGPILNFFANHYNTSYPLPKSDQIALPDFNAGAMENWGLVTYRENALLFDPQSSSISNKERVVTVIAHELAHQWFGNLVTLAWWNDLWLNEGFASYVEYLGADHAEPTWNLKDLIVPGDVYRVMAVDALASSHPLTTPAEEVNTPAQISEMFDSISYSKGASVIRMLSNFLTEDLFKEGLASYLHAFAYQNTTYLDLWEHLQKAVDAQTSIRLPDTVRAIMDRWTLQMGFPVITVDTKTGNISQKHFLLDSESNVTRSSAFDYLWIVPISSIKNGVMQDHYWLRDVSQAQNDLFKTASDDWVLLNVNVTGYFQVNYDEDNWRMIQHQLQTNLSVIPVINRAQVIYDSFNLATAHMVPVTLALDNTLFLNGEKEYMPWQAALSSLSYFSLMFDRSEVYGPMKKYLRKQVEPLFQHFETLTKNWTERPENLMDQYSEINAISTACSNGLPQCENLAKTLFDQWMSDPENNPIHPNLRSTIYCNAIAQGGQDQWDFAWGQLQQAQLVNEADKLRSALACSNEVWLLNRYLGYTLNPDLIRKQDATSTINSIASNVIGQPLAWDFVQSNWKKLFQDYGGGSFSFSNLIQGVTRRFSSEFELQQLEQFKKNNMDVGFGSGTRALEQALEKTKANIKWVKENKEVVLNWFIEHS

[1] = target: 72 kDa type IV collagenase (Homo sapiens, UniProt P08253); assay: Inhibition of MMP2
HL-60 = assay: Antiproliferative activity against human HL-60 cells after 48 hrs by MTT assay; format: functional, cell-based; conditions: HL-60, 48 h

Sequence of 72 kDa type IV collagenase (P08253 whole entry): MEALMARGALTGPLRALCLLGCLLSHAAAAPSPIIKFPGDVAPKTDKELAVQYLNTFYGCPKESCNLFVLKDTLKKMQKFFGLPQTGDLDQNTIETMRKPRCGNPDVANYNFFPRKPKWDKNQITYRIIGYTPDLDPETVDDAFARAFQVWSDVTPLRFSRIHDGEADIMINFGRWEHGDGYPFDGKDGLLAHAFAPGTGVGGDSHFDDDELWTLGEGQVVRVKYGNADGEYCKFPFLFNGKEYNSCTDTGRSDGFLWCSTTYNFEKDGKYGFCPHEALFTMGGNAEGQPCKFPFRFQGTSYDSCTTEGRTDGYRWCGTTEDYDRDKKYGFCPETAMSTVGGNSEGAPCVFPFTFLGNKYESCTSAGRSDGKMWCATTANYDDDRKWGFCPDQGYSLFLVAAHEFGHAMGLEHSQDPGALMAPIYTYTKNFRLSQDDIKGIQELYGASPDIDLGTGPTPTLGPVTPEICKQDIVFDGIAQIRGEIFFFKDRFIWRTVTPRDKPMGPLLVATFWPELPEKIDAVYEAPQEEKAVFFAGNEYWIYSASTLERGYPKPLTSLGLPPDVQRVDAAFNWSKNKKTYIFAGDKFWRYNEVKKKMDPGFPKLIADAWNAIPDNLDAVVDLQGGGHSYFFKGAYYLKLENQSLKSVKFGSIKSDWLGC

IC50 (Aminopeptidase N) | IC50 [1] | IC50 (HL-60) | Structure (SMILES)
409 µM | 11.2 µM |  | NCCC(=O)NC[C@H](N)Cc1ccccc1
492 µM | 329 µM |  | N[C@@H](CNC(=O)/C=C/c1ccc(O)c(O)c1)Cc1ccccc1
164 µM | 99.7 µM |  | NCCCCCC(=O)NC[C@H](N)Cc1ccccc1
> 1000 µM | > 1000 µM |  | N[C@@H](CNC(=O)Cc1ccccc1Nc1c(Cl)cccc1Cl)Cc1ccccc1
596 µM | 211 µM |  | N[C@@H](CNC(=O)/C=C/c1ccccc1)Cc1ccccc1
476 µM | 151 µM |  | CC(C)[C@H](N)C(=O)NC[C@H](N)Cc1ccccc1
15.5 µM | 183 µM | 630 µM | N[C@@H](CNC(=O)[C@H](Cc1ccccc1)NC(=O)[C@@H](N)Cc1ccccc1)Cc1ccccc1
204 µM | 101 µM |  | N[C@@H](CNC(=O)c1cc([N+](=O)[O-])cc([N+](=O)[O-])c1)Cc1ccccc1
164 µM | 99.7 µM |  | NCCCC[C@H](N)C(=O)NC[C@H](N)Cc1ccccc1
119 µM | 112 µM |  | CSCC[C@H](N)C(=O)NC[C@H](N)Cc1ccccc1
50.5 µM | 219 µM |  | NCCC[C@H](N)C(=O)NC[C@H](N)Cc1ccccc1
> 1000 µM | 772 µM |  | C[C@H](N)C(=O)NC[C@H](N)Cc1ccccc1
> 1000 µM | 802 µM |  | NC(=O)CC[C@H](N)C(=O)NC[C@H](N)Cc1ccccc1
21.1 µM | 78.8 µM | 1090 µM | N[C@@H](CNC(=O)[C@@H](N)CS)Cc1ccccc1
33.7 µM | 202 µM |  | N[C@@H](CNC(=O)[C@@H](N)CO)Cc1ccccc1
290 µM | 547 µM |  | N[C@@H](CNC(=O)CCc1ccccc1)Cc1ccccc1
> 1000 µM | 221 µM |  | N[C@@H](CNC(=O)CCCc1ccccc1)Cc1ccccc1
> 1000 µM | 23.5 µM |  | NCC(=O)NC[C@H](N)Cc1ccccc1
142 µM | 170 µM |  | CC(C)C[C@H](N)C(=O)NC[C@H](N)Cc1ccccc1
> 1000 µM | 632 µM |  | N[C@@H](CNC(=O)Cc1ccccc1)Cc1ccccc1
 | 162 µM |  | CC(C)C[C@H](NC(=O)[C@@H](O)[C@H](N)Cc1ccccc1)C(=O)O [UBENIMEX]
